“Also recorded” adds a separate entry of the source.
Assays:
[1] = test system: human pluripotent stem cells; test: HD-DoE 13-factor experiment for stage 1 recipe, gene expression modeled after 3-day treatment; dynamic profile and factor criticality analysis; assay type: cell-based
Summary of the method: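 Human pluripotent stem cells given 13-factor effector combinations (e.g. LDN193189, CHIR99021, PD0325901) for 3 days; expression of 53 preselected genes modeled, focusing on OTX2, DMBX1, FOXA2, LMX1A and GBX2. Factor criticality assessed by removing each of five finalized factors and comparing with all five present.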

[2] = test system: stage 1 neural stem cells; test: HD-DoE 12-factor experiment for stage 2 recipe (first model, FIG. 5-7, 12); assay type: cell-based, human; conditions: for factor contribution: positive impact
Source text: To further guide the differentiation of midbrain-committed neural stem cells to neural progenitor cells at stage 2, we performed an additional HD-DoE experiment. We thereby obtained additional gene regulatory models that were used for preparation of differentiation protocol. The basis of this was a 12-factor HD-DoE experiment with focus on initiation of differentiation of cells toward midbrain neural progenitor cells for an additional 3 days after termination of stage 1 treatment. Here, we focused on expression of LMX1A and FOXA2 in neural progenitor cells with low to zero expression of GBX2. LMX1A had significant high expression level in the model with value of 47888. Therefore, we used optimization setting for this gene to identify the positive factors. The factors in this experiment included SC79, MK2206, ZM336372, PD0325901, CHIR99021, A 83-01, TTNPB, AGN193109, GW3965, SR9243, Purmorphamine and GSI-XX.
To assess the impact of elimination of each validated factor, we used dynamic profile analysis and compared the expression level of genes of interest in absence of each finalized factor while others are present.
In the stage 2 recipe, each of the six finalized factors were removed while the other five factors were present and the expression levels of FOXA2, LMX1A and GBX2 were assessed, compared to the levels in the presence of all factors. According to the first experiment model, the absence of TTNPB lead to a rise of GBX2 expression, while the value of FOXA2 and LMX1A reduced drastically from 10,000 to 0 and 30,000 to 15,000, respectively. The absence of A 83-01 reduced the expression of FOXA2 from 10,000 to 7000, however, as expected, the value of LMX1A increased from 30,000 to 40,000. […] According to the second experiment model, the absence of BMP7 and MK2206 both reduced the level of FOXA2 while increasing the value of LMX1A, with BMP7 as the main effector that led to 0 expression of FOXA2.

[3] = test system: stage 3 immature neurons; test: HD-DoE 8-factor experiment for stage 4 recipe (FIG. 27, 28, 31); assay type: cell-based, human
Summary of the method: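 Stage 3 cells treated 4 days with combinatorial matrices including CHIR99021, BDNF, GDNF, Rosiglitazone, GW7647, DBZ and heparin, then gene expression (NR4A2, PITX3, TH) measured. Dropout tests removed each of six finalized factors singly, comparing NR4A2 and PITX3 against the full set.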

[4] = dynamic profile / model, 12 effectors

Cc1c[nH]c(-c2cnc(NCCNc3ccc(C#N)cn3)nc2-c2ccc(Cl)cc2Cl)n1 [CHIR99021]
impact on expression of FOXA2 ([1]; dynamic profile, 13 effectors): positive impact | impact on expression of OTX2 ([1]; dynamic profile, 13 effectors): positive impact | factor contribution ([1]; model optimized for maximum expression of FOXA2, positive effect): 15.6 | factor contribution ([1]; model optimized for maximum expression of OTX2, positive impact, 3-day treatment): 13.5 | expression level of LMX1A in absence of the factor ([1]; stage 1 recipe, other four factors present, 300 with all five factors): reduced | expression level of FOXA2 in absence of the factor ([1]; stage 1 recipe, other four factors present, 600 with all five factors): reduced | expression level of DMBX1 in absence of the factor ([1]; stage 1 recipe, other four factors present, 3000 with all five factors): reduced | expression level of OTX2 in absence of the factor ([1]; stage 1 recipe, other four factors present, 12000 with all five factors): reduced | impact on expression of FOXA2 [2, 4]: reduces | impact on expression of LMX1A [2, 4]: positive effect; also recorded: positive impact | impact on expression level of GBX2 ([2]; dynamic profile, 12 effectors): increases | factor contribution ([2]; model optimized for LMX1A): 8.3 | factor contribution ([2]; model optimized for maximum expression of FOXA2): 10.7 | impact on expression level of PITX3 ([3]; dynamic profile, 8 effectors): did not have a meaningful effect | factor contribution ([3]; model maximized for NR4A2, negative impact): 20.7
